Legend:
Assay in all cases: Test C preemergence
Assay type in all cases: in vivo
[1] = tested on: Nightshade; settings: Rate 500 g/ha, visual evaluation after 12 to 14 days
[2] = tested on: velvetleaf (Abutilon theophrasti)
Outline: (§1)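 Preemergence: seeds sown then treated. Postemergence: plants 2–18 cm, 1- to 4-leaf. Both with surfactant-containing solvent formulation; visual injury scored 0–100 after 12–14 d.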

[3] = tested on: soybean (Glycine max)
Outline: as §1

[4] = tested on: giant foxtail (Setaria faberii)
Outline: as §1

[5] = tested on: pigweed (Amaranthus retroflexus)
Outline: as §1

[6] = tested on: woolly cupgrass (Eriochloa villosa)
Outline: as §1

[7] = tested on: cocklebur (Xanthium strumarium)
Outline: as §1

[8] = tested on: lambsquarters (Chenopodium album)
Outline: as §1

[9] = tested on: Sunflower; settings: Rate 125 g/ha; scale 0 to 100, 0 no effect, 100 complete control
[10] = tested on: bermudagrass (Cynodon dactylon)
Outline: as §1

[11] = tested on: goosegrass (Eleusine indica)
Outline: as §1

[12] = tested on: common ragweed (Ambrosia elatior)
Outline: as §1

[13] = tested on: morningglory (Ipomoea hederacea)
Outline: as §1

[14] = tested on: crabgrass (Digitaria sanguinalis)
Outline: as §1

[15] = tested on: johnsongrass (Sorghum halepense)
Outline: as §1

[16] = tested on: yellow nutsedge (Cyperus esculentus)
Outline: as §1

[17] = tested on: kochia (Kochia scoparia)
Outline: as §1

[18] = tested on: Nightshade
[19] = tested on: Surinam grass (Brachiaria decumbens)
Outline: as §1

[20] = tested on: corn (Zea mays)
Outline: as §1

[21] = Rate 125 g/ha, scale 0 to 100, 0 no effect, 100 complete control
[22] = preemergence, Rate 62 g/ha, scale 0 to 100
[23] = preemergence, Rate 500 g/ha, visual evaluation after 12 to 14 days
[24] = preemergence, Rate 250 g/ha, scale 0 to 100, 0 no effect, 100 complete control

COc1cc(N2CCC(n3ccc(C(C)C)n3)C2=O)ccc1Cl (stereo not shown) [Compound 120]
Plant response rating (0 to 100), Nightshade [1]: 100
Plant response rating, Velvetleaf [2, 21]: 100
Plant response rating, Velvetleaf [2, 22]: 80
Plant response rating (0 to 100), Velvetleaf [2, 23]: 100
Plant response rating, Velvetleaf [2, 24]: 100
Plant response rating, Soybean [3, 21]: 70
Plant response rating, Soybean [3, 22]: 60
Plant response rating (0 to 100), Soybean [3, 23]: 100
Plant response rating, Soybean [3, 24]: 80
Plant response rating, Foxtail, Giant [4, 21]: 50
Plant response rating, Foxtail, Giant [4, 22]: 50
Plant response rating (0 to 100), Foxtail, Giant [4, 23]: 100
Plant response rating, Foxtail, Giant [4, 24]: 60
Plant response rating, Pigweed [5, 21]: 100
Plant response rating, Pigweed [5, 22]: 100
Plant response rating (0 to 100), Pigweed [5, 23]: 70
Plant response rating, Pigweed [5, 24]: 50
Plant response rating, Cupgrass, Woolly [6, 21]: 100
Plant response rating, Cupgrass, Woolly [6, 22]: 100
Plant response rating (0 to 100), Cupgrass, Woolly [6, 23]: 100
Plant response rating, Cupgrass, Woolly [6, 24]: 100
Plant response rating, Cocklebur [7, 21]: 0
Plant response rating, Cocklebur [7, 22]: 0
Plant response rating (0 to 100), Cocklebur [7, 23]: 30
Plant response rating, Cocklebur [7, 24]: 30
Plant response rating, Lambsquarters [8, 21]: 100
Plant response rating, Lambsquarters [8, 22]: 100
Plant response rating (0 to 100), Lambsquarters [8, 23]: 100
Plant response rating, Lambsquarters [8, 24]: 100
Plant response rating, Sunflower [9]: 90
Plant response rating, Bermudagrass [10, 21]: 100
Plant response rating, Bermudagrass [10, 22]: 100
Plant response rating (0 to 100 where 0 is no effect and 100 is complete control), Bermudagrass [10, 23]: 100
Plant response rating, Bermudagrass [10, 24]: 100
Plant response rating, Goosegrass [11, 21]: 100
Plant response rating, Goosegrass [11, 22]: 100
Plant response rating (0 to 100), Goosegrass [11, 23]: 100
Plant response rating, Goosegrass [11, 24]: 100
Plant response rating, Ragweed, Common [12, 21]: 100
Plant response rating, Ragweed, Common [12, 22]: 100
Plant response rating (0 to 100), Ragweed, Common [12, 23]: 100
Plant response rating, Ragweed, Common [12, 24]: 100
Plant response rating, Morningglory [13, 21]: 60
Plant response rating, Morningglory [13, 22]: 60
Plant response rating (0 to 100), Morningglory [13, 23]: 100
Plant response rating, Morningglory [13, 24]: 100
Plant response rating, Crabgrass [14, 21]: 100
Plant response rating, Crabgrass [14, 22]: 100
Plant response rating (0 to 100), Crabgrass [14, 23]: 100
Plant response rating, Crabgrass [14, 24]: 100
Plant response rating, Johnsongrass [15, 21]: 80
Plant response rating, Johnsongrass [15, 22]: 20
Plant response rating (0 to 100), Johnsongrass [15, 23]: 100
Plant response rating, Johnsongrass [15, 24]: 100
Plant response rating, Nutsedge [16, 21]: 80
Plant response rating, Nutsedge [16, 22]: 40
Plant response rating (0 to 100), Nutsedge [16, 23]: 100
Plant response rating, Nutsedge [16, 24]: 100
Plant response rating, Kochia [17, 21]: 100
Plant response rating, Kochia [17, 22]: 100
Plant response rating (0 to 100), Kochia [17, 23]: 100
Plant response rating, Kochia [17, 24]: 100
Plant response rating, Nightshade ([18]; Rate 62 g/ha, scale 0 to 100): 100
Plant response rating, Nightshade [18, 21]: 100
Plant response rating, Nightshade ([18]; Rate 250 g/ha, scale 0 to 100, 0 no effect, 100 complete control): 100
Plant response rating, Surinam grass [19, 21]: 100
Plant response rating, Surinam grass [19, 22]: 90
Plant response rating (0 to 100), Surinam grass [19, 23]: 100
Plant response rating, Surinam grass [19, 24]: 100
Plant response rating, Corn [20, 21]: 0
Plant response rating, Corn [20, 22]: 0
Plant response rating (0 to 100), Corn [20, 23]: 60
Plant response rating, Corn [20, 24]: 20

Source: US7138361B2, “Herbicidal heterocycles” (E. I. du Pont de Nemours and Company, priority 2000, dated 2006)
